Data as given in patent US9095624B2 (priority 2011, dated 2015).

Experiments:
[1] = system: C57Black/6J mice with B16-F1 melanoma; assay: Photodynamic therapy, B16-F1 melanoma; type: in vivo
Procedure: (§1) In order to evaluate the potential utility of MTP for enhancing the therapeutic efficacy of a drug that requires localization within the cell nucleus to be effective, photodynamic therapy (PDT) studies were performed in three different murine subcutaneous tumor models, with PDT initiated three hours after photosensitizer (PS) injection. The comparative efficacy of photodynamic therapy with bacteriochlorin p conjugated with DTox-HMP-NLS-αMSH MTP and free bacteriochlorin p is reported in FIGS. 11A-D.
The first experiment was performed in C57Black/6J mice with B16-F1 melanoma. FIG. 11A reports tumor growth, mean±SEM, with injection and illumination cycles indicated with arrows. The average tumor volumes are shown up to the last day when all animals were alive in a group. FIG. 11B provides the Kaplan-Meier survival curve. […] The median survival for mice receiving PS-MTP conjugate was 32.0±1.3 days compared with 17.0±1.5 days for the control group and 20.0±5.5 days for the bacteriochlorin group (FIG. 11B). The difference in survival between PS-MTP and each of two control groups was significant (p<0.01).

[2] = system: DBA/2 mice with Cloudman S91 melanoma; assay: Photodynamic therapy, Cloudman S91 melanoma; type: in vivo; conditions: PDT
Procedure: as §1
The second experiment utilized DBA/2 mice with Cloudman S91 melanoma. FIG. 11C reports tumor growth, mean±SEM with the injection and illumination cycles being indicated with arrows. The average tumor volumes are shown up to the last day when all animals were alive in a group. FIG. 11D provides the Kaplan-Meier survival curve. […] The median survival for mice receiving PS-MTP conjugate was 56.0±18.6 days compared with 21.0±0.7 days for the control group and 31.0±1.3 days for the bacteriochlorin group (FIG. 11D).

[3] = system: Balb/c ByJIco-nu/nu mice with A431 human epidermoid carcinoma xenografts; conditions: mouse, in vivo

Compound	median survival ([1]; PDT) [days]	inhibition in tumor growth ([1]; PDT three hours after photosensitizer injection)	median survival [2] [days]	animals remaining alive at the end of the observation period [3] [%]
bacteriochlorin p	20.0 ± 5.5	no significant effect	31.0 ± 1.3	
C=Cc1c(C)c2cc3nc(c(CC(=O)O)c4[nH]c(cc5nc(cc1[nH]2)C(C)=C5CC)c(C)c4C(=O)O)[C@@H](CCC(=O)O)[C@@H]3C [chlorin e6]				20
